From patent US7868204B2, “Inhibitors of histone deacetylase” (MethylGene Inc., priority 2001, dated 2011)
Like-named read-outs stand apart in the source and are kept apart here.

Columns and labels:
[1] = target: T1, cloned recombinant human HDAC-1 (Homo sapiens, UniProt Q13547); assay: Human HDAC-1 enzyme inhibition, Assay 1 ([3H]-acetylated histone substrate, scintillation counting); format: biochemical
T1 construct: made in house; host or cells: Baculovirus insect cell expression system
Outline: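 Activity read as [3H]-acetic acid liberated from labeled substrate, ethyl acetate-extracted and scintillation-counted. Compounds preincubated 30 min at 4° C. with baculovirus-expressed, purified human HDAC-1. Dose-response curves give IC50 as concentration producing fifty percent of maximal inhibition.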

[2] = system: acetylated histone H-4 in T24 human bladder cancer cells; assay: Histone H4 acetylation in whole cells by immunoblots; format: cell-based; settings: 16 h
Outline: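 Acetylated histone H4 was quantified by densitometry of ECL-developed immunoblots, probed with a polyclonal antibody, of […] total histone from T24 cultures exposed 16 h to HDAC inhibitors.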

HCT116 cells = assay: MTT assay; format: cell-based; settings: Homo sapiens, HCT116 cells, 72 hours
Outline: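 Read-out: MTT (0.5 mg/ml final, 4 h) after solubilization in 50% DMF/20% SDS, pH 4.7, with OD translated into cell number via the line's growth curve. Compound treatment lasted 72 h at 37 °C in 5% CO2, starting a day after plating.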

[3] = Table 5F, read-out: Human HDAC-1 IC50
[4] = T-24, Table 5F, read-out: H4 Ac (T24) EC50
[5] = Table 5a, read-out: Human HDAC-1 IC50
[6] = T-24, Table 5a, read-out: H4Ac (T24) EC50
[7] = T-24, Table 5d, read-out: H4Ac(T24) EC50
[8] = Table 5c, read-out: Human HDAC-1 IC50
[9] = T-24, Table 5c, read-out: H4Ac (T24) EC50
[10] = Table 5d, read-out: HDAC-1 IC50

T1 sequence (Q13547 whole entry): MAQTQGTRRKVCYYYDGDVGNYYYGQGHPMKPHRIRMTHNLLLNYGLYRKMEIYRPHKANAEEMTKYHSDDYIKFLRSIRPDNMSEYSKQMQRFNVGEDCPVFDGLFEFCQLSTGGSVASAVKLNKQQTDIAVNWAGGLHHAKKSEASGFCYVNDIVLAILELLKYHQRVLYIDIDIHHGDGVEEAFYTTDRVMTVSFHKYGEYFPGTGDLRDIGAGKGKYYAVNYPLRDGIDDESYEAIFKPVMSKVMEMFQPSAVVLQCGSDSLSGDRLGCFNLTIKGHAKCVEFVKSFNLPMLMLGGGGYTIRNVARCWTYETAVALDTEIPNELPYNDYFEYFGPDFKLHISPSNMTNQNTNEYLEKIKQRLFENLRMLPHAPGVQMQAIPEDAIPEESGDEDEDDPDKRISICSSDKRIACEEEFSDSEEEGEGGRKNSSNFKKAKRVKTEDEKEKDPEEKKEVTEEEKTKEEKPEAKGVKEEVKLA

SMILES	IC50 [1, 3] [nM]	EC50 [2, 4] [nM]	IC50 (HCT116 cells; HCT-116, 72 h, Table 5F) [nM]	further results
COc1cc(CNc2ccc3sc(C(=O)Nc4ccccc4N)cc3c2)cc(OC)c1OC [compound 590, 5-(3,4,5-Trimethoxy-benzylamino)-benzo[b]thiophene-2-carboxylic acid (2-amino-phenyl)-amide]	2000	3000	2000	
Cc1cc(C)nc(OCc2ccc(C(=O)Nc3ccccc3N)cc2)n1 [Cpd 384, N-(2-Amino-phenyl)-4-(4,6-dimethyl-pyrimidin-2-yloxymethyl)-benzamide]	3000	5000	2000	
Cc1sc2ncn(Cc3ccc(C(=O)Nc4ccccc4N)cc3)c(=O)c2c1C [compound 259, N-(2-Amino-phenyl)-4-(5,6-dimethyl-4-oxo-4H-thieno[2,3-d]pyrimidin-3-ylmethyl)-benzamide]	3000	1000	300	
Cc1nc2ccc(Br)cc2c(=O)n1Cc1ccc(C(=O)Nc2ccccc2N)cc1 [Cpd 342, N-(2-Amino-phenyl)-4-(6-bromo-2-methyl-4-oxo-4H-quinazolin-3-ylmethyl)-benzamide]	3000	1000	400	
Nc1ccccc1NC(=O)c1ccc(Cn2cnc3ccc(Br)cc3c2=O)cc1 [Cpd 346, N-(2-Amino-phenyl)-4-(6-bromo-4-oxo-4H-quinazolin-3-ylmethyl)-benzamide]	3000	< 1000	500	
Nc1nc(NCc2ccc(C(=O)Nc3ccccc3N)cc2)nc(N2Cc3ccccc3C2)n1 [Cpd 28]				IC50 [1, 5]: 2000 nM; EC50 [2, 6]: 1000 nM; IC50 (HCT116 cells; HCT-116, 72 h, Table 5a): 500 nM
Nc1ccccc1NC(=O)c1ccc(CC2Cc3ccccc3C2=O)cc1 (stereo not drawn) [compound 272, N-(2-Amino-phenyl)-4-(1-oxo-indan-2-ylmethyl)-benzamide]	2000	< 1000	600	
Nc1ccccc1NC(=O)/C=C/c1ccc(CNc2ccc(Cc3ccncc3)cc2)cc1 [Cpd 531, N-(2-Amino-phenyl)-3-{4-[(4-pyridin-4-ylmethyl-phenylamino)-methyl]-phenyl}-acrylamide]				IC50 ([1]; HDAC-1 IC50, Table 5d): 3000 nM; EC50 [2, 7]: 20000 nM; IC50 (HCT116 cells; HCT-116, Table 5d): 2000 nM
Nc1ccccc1NC(=O)c1ccc(Cn2cnc3ccc(Cl)cc3c2=O)cc1 [Cpd 336]	1000	< 1000	400	
Nc1ccccc1NC(=O)c1ccc(Cc2coc3ccccc3c2=O)cc1 [compound 262, N-(2-Amino-phenyl)-4-(4-oxo-4H-chromen-3-ylmethyl)-benzamide]	500	1000	300	
Nc1ccccc1NC(=O)c1ccc(CC2Cc3ccccc3C2O)cc1 (stereo not drawn) [compound 275, N-(2-Amino-phenyl)-4-(1-hydroxy-indan-2-ylmethyl)-benzamide]	4000	2000	900	
COc1ccc(NCc2ccc(/C=C/C(=O)Nc3ccccc3N)cc2)cn1 [Cpd 109, N-(2-Amino-phenyl)-3-{4-[(6-methoxy-pyridin-3-ylamino)-methyl]-phenyl}-acrylamide]				IC50 [1, 8]: 5000 nM; EC50 [2, 9]: 15000 nM; IC50 (HCT116 cells; HCT-116, 72 h, Table 5c): 8000 nM
Nc1nc(NCc2ccccc2)nc(NCc2ccc(C(=O)Nc3ccccc3N)cc2)n1 [Cpd 29, 4-[(4-Amino-6-benzylamino-[1,3,5]triazin-2-ylamino)-methyl]-N-(2-amino-phenyl)-benzamide]				IC50 [1, 5]: 2000 nM; EC50 [2, 6]: 1000 nM; IC50 (HCT116 cells; HCT-116, 72 h, Table 5a): 2000 nM
Nc1ccccc1NC(=O)c1ccc(CC2Oc3ccccc3NC2=O)cc1 (stereo not drawn) [compound 270, N-(2-Amino-phenyl)-4-(3-oxo-3,4-dihydro-2H-benzo[1,4]oxazin-2-ylmethyl)-benzamide]	4000	5000	1000	
CN1CCN(c2ccc(NCc3ccc(/C=C/C(=O)Nc4ccccc4N)cc3)cc2C(F)(F)F)CC1 [Cpd 526]				IC50 [1, 10]: 2000 nM; EC50 [2, 7]: 1000 nM; IC50 (HCT116 cells; HCT-116, Table 5d): 800 nM
COc1cccc(NCc2ccc(C(=O)Nc3ccccc3N)cc2)n1 [Cpd 390, N-(2-Amino-phenyl)-4-[(6-methoxy-pyridin-2-ylamino)-methyl]-benzamide]	2000	5000	800	
Nc1ccccc1NC(=O)c1ccc(CSc2nc3ccccc3s2)cc1 [Cpd 172]				IC50 ([1]; Table 5E, read-out: Human HDAC-1 IC50): 400 nM; EC50 ([2]; T-24, Table 5E, read-out: H4 Ac (T24) EC50): 3000 nM; IC50 (HCT116 cells; HCT-116, 72 h, Table 5E): 1000 nM
COc1ccc(N(Cc2ccc(C(=O)Nc3ccccc3N)cc2)C(=O)Nc2ccc(Oc3ccccc3)cc2)cc1OC [Cpd 374, N-(2-Amino-phenyl)-4-[1-(3,4-dimethoxy-phenyl)-3-(4-phenoxy-phenyl)-ureidomethyl]-benzamide]	2500	1000	300	

SMILES	IC50 [1, 3] [nM]	EC50 [2, 4] [nM]	IC50 (HCT116 cells; HCT-116, 72 h, Table 5F) [nM]	further results
Nc1nc(NCc2ccc(C(=O)Nc3ccccc3N)cc2)nc(NC2CCc3ccccc32)n1 (stereo not drawn) [Cpd 10, 4-{[4-amino-6-(1-indanyl-amino)-[1,3,5]-triazin-2-ylamino]-methyl}-N-(2-amino-phenyl)-benzamide]				IC50 [1, 5]: 2000 nM; EC50 [2, 6]: 1000 nM; IC50 (HCT116 cells; HCT-116, 72 h, Table 5a): 600 nM
CCn1c(=O)n(Cc2ccc(C(=O)Nc3ccccc3N)cc2)c(=O)c2sccc21 [Cpd 255]	2000	1000	800	
Nc1ccccc1NC(=O)/C=C/c1ccc(NCc2cccnc2)nc1 [Cpd 90, N-(2-aminophenyl)-3-{6-[(pyridin-3-ylmethyl)-amino]-pyridin-3-yl}-acrylamide]				IC50 [1, 8]: 10000 nM; EC50 [2, 9]: 5000 nM; IC50 (HCT116 cells; HCT-116, 72 h, Table 5c): 5000 nM
Cc1ccc(C#N)c(OCc2ccc(C(=O)Nc3ccccc3N)cc2)n1 [Cpd 577, N-(2-Amino-phenyl)-4-(3-cyano-6-methyl-pyridin-2-yloxymethyl)-benzamide]	2000	2000	500	
CCC1(C)CC(=O)N(Cc2ccc(C(=O)Nc3ccccc3N)cc2)C(=O)C1 [Cpd 180]	3000	5000	2000	
COCCNc1nc(NCCc2ccccc2)nc(NCc2ccc(C(=O)Nc3ccccc3N)cc2)n1 [Cpd 474]				IC50 ([1]; Table 5b, read-out: Human HDAC-1 IC50): 3000 nM; EC50 ([2]; T-24, Table 5b, read-out: H4Ac (T24) EC50): 1000 nM; IC50 (HCT116 cells; HCT-116, 72 h, Table 5b): 1000 nM
Nc1ccccc1NC(=O)c1ccc(CN2C(=O)COc3ccccc32)cc1 [Cpd 362, N-(2-Amino-phenyl)-4-(3-oxo-2,3-dihydro-benzo[1,4]oxazin-4-ylmethyl)-benzamide]	2000	1000	700	
Nc1ccccc1NC(=O)/C=C/c1ccc(CNC(=O)OCc2cccnc2)cc1 [Cpd 104]				IC50 [1, 8]: 10000 nM; EC50 [2, 9]: 5000 nM; IC50 (HCT116 cells; HCT-116, 72 h, Table 5c): 9000 nM
COc1cc(NCc2ccc(C(=O)Nc3ccccc3N)cc2)c(C(C)=O)cc1OC [Cpd 441, 4-[(2-Acetyl-4,5-dimethoxy-phenylamino)-methyl]-N-(2-amino-phenyl)-benzamide]	2000	2000	800	
COc1cc(NCc2ccc(C(=O)Nc3ccccc3N)cc2)cc(OC)c1 [Cpd 397, N-(2-Amino-phenyl)-4-[(3,5-dimethoxy-phenylamino)-methyl]-benzamide]	1000	4000	600	
CC1(C)C2CC[C@@](C)(C2)[C@H]1Nc1nc(N)nc(NCc2ccc(C(=O)Nc3ccccc3N)cc2)n1 [Cpd 17]				IC50 [1, 5]: 900 nM; EC50 [2, 6]: 2000 nM; IC50 (HCT116 cells; HCT-116, 72 h, Table 5a): 1000 nM
Nc1ccccc1NC(=O)c1ccc(CNc2nc(Cl)cc(Cl)n2)cc1 [Cpd 419, N-(2-Amino-phenyl)-4-[(4,6-dichloro-pyrimidin-2-ylamino)-methyl]-benzamide]	2000	5000	1000	
COCCn1cnc2c(NCc3ccc(C(=O)Nc4ccccc4N)cc3)nc(Cl)nc21 [Cpd 243]	2000	1000	800	
Nc1ccccc1NC(=O)c1ccc(NCCNc2ccccc2)nc1 [Cpd 460, N-(2-Amino-phenyl)-6-(2-phenylamino-ethylamino)-nicotinamide]	3000	1000	1000	
Nc1ccccc1NC(=O)/C=C/c1ccc(NCCNc2ncccn2)nc1 [Cpd 521, N-(2-Amino-phenyl)-3-{6-[2-(pyrimidin-2-ylamino)-ethylamino]-pyridin-3-yl}-acrylamide]				IC50 [1, 10]: 5000 nM; EC50 [2, 7]: 10000 nM; IC50 (HCT116 cells; HCT-116, Table 5d): 2000 nM
COc1ccc2[nH]c(SCc3ccc4oc(C(=O)Nc5ccccc5N)cc4c3)nc2c1 [Cpd 591, 5-(5-Methoxy-1H-benzoimidazol-2-ylsulfanyl-methyl)-benzofuran-2-carboxylic acid (2-amino-phenyl)amide]	4000	< 1000	300	
Nc1ccccc1NC(=O)c1ccc(CNc2ncccn2)cc1 [Cpd 377]	4000	3000	2000	
Nc1ccccc1NC(=O)c1ccc(CNCCc2c[nH]c3ccccc23)cc1 [Cpd 436]	5000	5000	800	
